SMILES | melting point [°C]
COc1ccc(C2=NN(C3CCN(CCOCCN)CC3)C(=O)[C@@H]3CC=CC[C@H]23)cc1OC.Cl.Cl | 86 to 89
COc1ccc(C2=NN(C3CCN(C(=O)CS(C)(=O)=O)CC3)C(=O)[C@@H]3CC=CC[C@H]23)cc1OC [Compound 1, (4aS,8aR)-4-(3,4-Dimethoxy-phenyl)-2-[1(2-methanesulfonyl-ethanoyl)-piperidin-4-yl]-4a,5,8,8a-tetrahydro-2H-phthalazin-1-one] | 169 to 170
COc1ccc(C2=NN(C3CCN(C(=O)CCCOc4ccc5[nH]c(=O)ccc5c4)CC3)C(=O)CC2)cc1OC [Compound 15, 6-(4-{4-[3-(3,4-Dimethoxy-phenyl)-6-oxo-5,6-dihydro-4H-pyridazin-1-yl]-piperidin-1-yl}-4-oxo-butoxy)-1H-quinolin-2-one] | 169 to 171
COc1ccc(C2=NN(C3CCN(CC(=O)c4cc5ccccc5o4)CC3)C(=O)C3CC=CCC23)cc1OC (centres unmarked) [Compound 2] | 188 to 189

Next, values leading:

melting point [°C] | SMILES
87 to 90 | COc1ccc(C2=NN(C3CCN(CCS(C)(=O)=O)CC3)C(=O)[C@@H]3CC=CC[C@H]23)cc1OC.Cl [Compound 11, (4aS,8aR)-4-(3,4-Dimethoxy-phenyl)-2-[1-(2-methanesulfonyl-ethyl)-piperidin-4-yl]-4a,5,8,8a-tetrahydro-2H-phthalazin-1-one hydrochloride]
87 to 90 | COCCN1CCC(N2N=C(c3ccc(OC)c(OC)c3)[C@H]3CC=CC[C@H]3C2=O)CC1.Cl [Compound 9, (4aS,8aR)-4-(3,4-Dimethoxy-phenyl)-2-[1-(2-methoxy-ethyl)-piperidin-4-yl]-4a,5,8,8a-tetrahydro-2H-phthalazin-1-one hydrochloride]
118 to 121 | COc1ccc(C2=NN(C3CCN(C(=O)CCS(=O)(=O)CCNC(=O)N4CCOCC4)CC3)C(=O)C3CC=CCC23)cc1OC (centres unmarked) [Compound 5]
147 to 149 | COc1ccc(C2=NN(C3CCN(Cc4ccc(-n5cnc6ccccc65)cc4)CC3)C(=O)[C@@H]3CC=CC[C@H]23)cc1OC.Cl [Compound 3, (4aS,8aR)-2-[1-(4-Benzimidazol-1-yl-benzyl)-piperidin-4-yl]-4-(3,4-dimethoxy-phenyl)-4a,5,8,8a-tetrahydro-2H-phthalazin-1-one hydrochloride]

Reference: US20060094710A1, “Piperidine-pyridazones and phthalazones as pde4 inhibitors” (Altana Pharma AG, priority 2002, published 2006)
